# Source: publication PMC10403513, “Tasmanian devil cathelicidins exhibit anticancer activity against Devil Facial Tumour Disease (DFTD) cells” (Scientific Reports, 2023)
# No end group written: not given here.
# Tests used:
# DFT1 1426 cells [1] = experiment: Ingenuity Pathway Analysis (canonical pathways) of DE genes in treated DFT1 1426 cells; assay type: cell-based, Tasmanian devil (Sarcophilus harrisii); details: DE genes of cells treated with 500 μg/mL for 10 h
# Procedure: (§1) Over-representation analysis of Biological Processes was conducted in clusterProfiler v3.18.1[57]. Statistical significance was adjusted for multiple comparisons using the Benjamini–Hochberg method, and terms were considered significant when p-adj < 0.05. To remove general terms, gene sets larger than 200 were removed, and the simplify function was used to remove redundant GO terms. Further pathway analysis was conducted in IPA (Qiagen)[58], using mammal as the species type and nervous system for the tissue/cell type.
# DFT1 1426 cells [2] = experiment: RNAseq differential gene expression in peptide-treated DFT1 1426 cells; assay type: cell-based, Tasmanian devil (Sarcophilus harrisii); details: 500 μg/mL, 10 h, n = 3, vs vehicle control
# Procedure: RNAseq was used to characterize the mechanisms underlying the anticancer activity of the peptides. Confluent DFT1 1426 cells (passage number 25) were re-suspended at a concentration of 5 × 10^5 cells/ml and 1 mL seeded into each well of a sterile flat-bottom polystyrene 12-well plate (Corning). Following incubation for 24 h at 35 °C 5% CO2, media was aspirated from the cells and replaced with 500 μL of RPMI 1640 with 2 mM L-glutamine, 10% FBS and 10% AmnioMax II. 500 μL of each 1 mg/mL peptide solution (Saha-CATH1 to 7) was then added to the plate in triplicate, to give a final peptide concentration of 500 μg/mL. […] A vehicle control was also added to the plate in triplicate.
# The plate was then incubated for a further 10 h at 35 °C in 5% CO2. This incubation period was selected as the cytotoxicity assay indicated it was sublethal for most of the peptides and would maintain sufficient cell viability to extract intact RNA. Media was then aspirated from the cells, which were washed twice with Dulbecco’s phosphate buffered saline (DPBS) (Sigma-Aldrich).
# Total RNA was extracted from each replicate of the peptide-treated and vehicle control cells (n = 3) using the RNeasy mini kit (Qiagen) with cell lysis directly in each well of the 12 well plate. Total RNA was quality assessed using the RNA nano 6000 kit on the Agilent Bioanalyzer with all samples displaying a RIN score between 5 and 9. In total, 24 RNA samples corresponding to three treatments per peptide (Saha-CATH1 to 7) and a vehicle control were submitted to Ramaciotti Centre for Genomics (The University of New South Wales) for sequencing. Illumina TruSeq mRNA libraries were prepared for all samples, which were sequenced as 2 × 150 bp paired-end reads across an SP flowcell on the NovaSeq6000.
# Raw reads were quality assessed using FastQC v0.11.8[47], then quality and length trimmed using Trimmomatic v0.39[48] using default parameters. Trimmed reads for each treatment (n = 3) and the control (n = 3) were aligned to the Tasmanian devil reference genome v7.0 (NCBI: GCA_000189315.1[49] using STAR v2.7.8a[50]. Alignments for each treatment were summarized into gene counts using featureCounts in the subread package v1.5.1[51].
# Gene counts were used as input for differential expression analysis in R[52]. Genes with less than 50 counts across all samples were removed from the analysis, as these were unlikely to be biologically relevant and lacked sufficient statistical power. Firstly, the data was normalized by trimmed mean of M values (TMM) using edgeR v3.32.1[53] to account for any composition bias between libraries and to give an effective library size for downstream analysis. Multidimensional scaling (MDS) was used to check for variation between treatments using limma v3.36.0[54]. Expression levels were then normalized using upper-quartile normalization in EDAseq v2.24.0[55] to account for differences in distribution between lanes, such as sequencing depth. Differential expression analysis was performed using voom in the limma v3.36.0 package.
# as §1
# DFT1 1426 cells [3] = assay type: cell-based, Tasmanian devil (Sarcophilus harrisii)
# Procedure: The DFT1 cell line 1426, derived from a primary DFT1 tumour, was obtained from Menzies Institute for Medical Research, University of Tasmania. The cell line was maintained in RPMI 1640 media with 2 mM L-glutamine (Gibco) supplemented with 10% AmnioMax II (Gibco), 10% heat-inactivated foetal bovine serum (FBS) and 1% penicillin/streptomycin (Sigma-Aldrich), in T75 flasks (Nunc) at 35 °C 5% CO2. Cells were passaged using trypsin–EDTA (Sigma-Aldrich) when 90% confluent.
# Toxicity of seven Tasmanian devil cathelicidins against DFT1 1426 cells was determined for twofold dilutions from 500 to 15.62 µg/mL, and four different timepoints (12, 18, 24 and 36 h). Confluent DFT1 1426 cells (passage 22) were re-suspended in RPMI 1640 with 10% FBS and 10% AmnioMax II at a concentration of 5 × 10^5 cells/mL, and 100μL seeded into each well of a sterile flat-bottom 96 well plate (Corning), with individual plates for each timepoint (12, 18, 24 and 36 h). All plates were incubated for 24 h at 35 °C 5% CO2 prior to the cytotoxicity test.
# At 0 h, 100 μL of each peptide dilution was then added to each plate in quadruplicate for all timepoints (12, 18, 24 and 36 h), resulting in a final peptide concentrations of 500 μg/mL, 250 μg/mL, 125 μg/mL, 62.50 μg/mL, 31.25 μg/mL and 15.62 μg/mL. […] An untreated growth control of RPMI 1640, a positive control of dimethylsulfoxide (DMSO) (15%) and sterility control of RPMI 1640 only (no cells) were also included for each time point.
# For the 12 h timepoint, 10% alamarBlue was immediately added to each well of the plate after addition of the peptide. For the remaining timepoints, plates were incubated for an additional 6, 12 or 24 h after addition of the peptides, then 10% alamarBlue added to each well. For all timepoints, after the addition of alamarBlue cells were incubated for a further 12 h, resulting in a total peptide incubation period of 12, 18, 24 and 36 h. Absorbance of alamarBlue for all timepoints was determined at 570 nm and 630 nm on a Biotek 800 TS microplate reader. Cell viability was calculated according to manufacturer’s instructions and expressed as a percentage of cell survival compared to the untreated growth control.
# A one-sample, one-tailed t-test was used to test for significant difference in viability between treated cells and the negative growth control. A one sample, two-tailed t-test was also conducted to ensure there was no significant difference in viability between the negative growth control and the cells treated with the solvent only. Statistical analysis was conducted in R (R Development Core Team 2021).
# human red blood cells = details: cited from earlier work
# Text: Cathelicidins have been isolated from many vertebrate taxa[34]–[37]. However, they have undergone gene expansion in marsupials due to the need for additional protection of immunologically naïve young during development in the pouch. […] During development within the pouch, young are exposed to diverse microbial flora, some of which are pathogenic. This has likely encouraged the lineage-specific expansion of cathelicidins in marsupials, resulting in mult ...
# human cell line A549 = details: cited from earlier work
# Procedure: Here we aimed to identify cathelicidin candidates for future development as anti-DFTD therapeutics. Four Tasmanian devil cathelicidins (Saha-CATH3, 4, 5 and 6) were toxic to DFT1 1426 cells at high concentrations: Saha-CATH3 at concentrations ≥ 62.5 µg/mL; Saha-CATH4 at 500 µg/mL; Saha-CATH5 at concentrations ≥ 125 µg/mL and Saha-CATH6 at concentrations ≥ 250 µg/mL. Previous studies have shown that two of these peptides (Saha-CATH3 and 4) are non-toxic to human cell line A549[44]. The other two (Saha-CATH5 and 6) reduced cell viability at high concentrations (500 µg/mL), resulting in 42% and 5 ...
sequence,measurement,setting,value
KRMGIFHLFWAGLRKLGNLIKNKIQQGIENFLG [Saha-CATH3],"IPA z-score, Cyclins and Cell Cycle Regulation",DFT1 1426 cells [1],-2.333
same,"IPA z-score, Th17 activation pathway",DFT1 1426 cells [1],3.317
same,"Fold change, gene CCND3","DFT1 1426 cells [2]; G1-S phase transition, RNAseq",0.62
same,"Fold change, gene CCNE1","DFT1 1426 cells [2]; G1-S phase transition, RNAseq",0.57
same,"Fold change, gene CCNE2","DFT1 1426 cells [2]; G1-S phase transition, RNAseq",0.61
same,"Fold change, gene E2F2","DFT1 1426 cells [2]; cyclin transcription factor, RNAseq",0.48
same,"Fold change, gene IL1R1","DFT1 1426 cells [2]; cytokine receptor, RNAseq",2.41
same,"Fold change, gene IL6R","DFT1 1426 cells [2]; cytokine receptor, RNAseq",2.88
same,"Fold change, gene IL6","DFT1 1426 cells [2]; cytokine, RNAseq",4.38
same,"Fold change, gene MYD88","DFT1 1426 cells [2]; immune signaling, RNAseq",2.64
same,percentage of DE genes,"DFT1 1426 cells [2]; of 15,548 genes",12.63%
same,"Fold change, gene RUNX1","DFT1 1426 cells [2]; transcription factor, RNAseq",2.71
same,decrease in cell viability compared to the growth control,"DFT1 1426 cells [3]; 500 μg/mL, 36 h, DFT1 1426 cells, alamarBlue, quadruplicate",more than 50%
same,incubation period required before exhibiting a similar level of toxicity to Saha-CATH5,"DFT1 1426 cells [3]; 500 μg/mL, DFT1 1426 cells",18 h
same,cytotoxic concentration (cell viability reduced by more than 50%),DFT1 1426 cells [3]; 18 h,62.5 to 250 µg/mL
same,concentration toxic to DFT1 1426 cells,DFT1 1426 cells [3]; summary in the discussion,≥ 62.5 µg/mL
same,haemolysis of human red blood cells (in words),human red blood cells,not haemolytic
same,toxicity to human cell line A549 (in words),human cell line A549,non-toxic
